Structures are written as SMILES.

The target of assay [1] is T1, Prothrombin (Homo sapiens, UniProt P00734). Put plainly: Inhibitory concentration against Thrombin; 0.029-0.15 uM.
Assay [2] concerns the target T1, Prothrombin. Put plainly: Binding affinity values determined by clotting inhibition assays.

With `CC[C@H](C)[C@H](NC(=O)[C@H]1CCCN1C(=O)[C@H](CCC(=O)O)NC(=O)[C@@H](Cc1ccc(O)cc1)NC(=O)CCC(=O)O)C(=O)N1CCC[C@@H]1C(=O)N[C@@H](CCC(=O)O)C(=O)N[C@H](CCC(=O)O)C(=O)N[C@@H](C)C(=O)N[C@H](CC1CCCCC1)C(=O)N[C@@H](CCC(=O)O)C(=O)O`, the IC50 – broadly, the concentration at which inhibition is half-maximal – against Prothrombin [1] is 0.029 µM.

`CC[C@H](C)[C@H](NC(=O)[C@H]1CCCN1C(=O)[C@H](CCC(=O)O)NC(=O)[C@@H](Cc1ccc(O)cc1)NC(=O)CC(N)C(=O)CCCCCCCNC(=O)C1=CC(C)(C)N(O)C1(C)C)C(=O)N1CCC[C@@H]1C(=O)N[C@@H](CCC(=O)O)C(=O)N[C@H](CCC(=O)O)C(=O)N[C@@H](C)C(=O)N[C@H](CC1CCCCC1)C(=O)N[C@@H](CCC(=O)O)C(=O)O` (some centres undefined): on Prothrombin [2], the affinity, expressed as Ki, was 0.1 µM.

Turning to `CC[C@H](C)[C@H](NC(=O)[C@H]1CCCN1C(=O)[C@H](CCC(=O)O)NC(=O)[C@@H](Cc1ccc(O)cc1)NC(=O)CC(N)C(=O)CCCCCCCNC(=O)c1ccccc1N)C(=O)N1CCC[C@@H]1C(=O)N[C@@H](CCC(=O)O)C(=O)N[C@H](CCC(=O)O)C(=O)N[C@@H](C)C(=O)N[C@H](CC1CCCCC1)C(=O)N[C@@H](CCC(=O)O)C(=O)O` (some centres undefined), at Prothrombin [2], the Ki (commonly the dissociation constant of the complex between target and ligand, obtained from inhibition or displacement) was determined as 0.1 µM.

Compound `CC[C@H](C)[C@H](NC(=O)[C@H]1CCCN1C(=O)[C@H](CCC(=O)O)NC(=O)[C@@H](Cc1ccc(O)cc1)NC(=O)CC(N)C(=O)CCCCCCCNc1cccc2c(N(C)C)cccc12)C(=O)N1CCC[C@@H]1C(=O)N[C@@H](CCC(=O)O)C(=O)N[C@H](CCC(=O)O)C(=O)N[C@@H](C)C(=O)N[C@H](CC1CCCCC1)C(=O)N[C@@H](CCC(=O)O)C(=O)O` (some centres undefined) came in with a Ki on Prothrombin [2] of 0.1 µM.

These data come from ChEMBL document CHEMBL1127748, “Binding of fluorescent and spin-labeled C-terminal hirudin analogs to thrombin” (J Med Chem, 1994).
